How the values were obtained:
[1] = Single-dose pharmacokinetics in mice (plasma and brain, UPLC-TSQ/MS); assay type: in vivo, C57BL/6J mice; details: mouse
Procedure: To determine the pharmacokinetics of AP5 in mice, the mice were administered a single dose of AP5 by i.v. and oral gavage dose routes. The plasma and brain homogenate were detected by UPLC-TSQ/MS(Thermo Fisher Scientific, Waltham, MA, United States). The plasma drug concentrations were analyzed for PK data by DAS (Drug and Statistics) Version 3.0 (BioGuider Corporation, Shanghai, China). Bioavailability (F%) after oral administration was calculated as AUCINF p.o./AUCINF i.v./4 × 100. AUCINF p.o. and AUCINF i.v. represent the area under the plasma concentration–time curve extrapolated to infinity after single-dose per os and intravenous injection, respectively. The extent of brain penetration was measured by the brain-to-plasma distribution ratio (B/P). The B/P value was calculated as: AUCINFbrain/AUCINF plasma × 100. AUCINF brain represents the area under the brain concentration–time curve extrapolated to infinity after a single-dose per os.
We next determine the pharmacokinetic profile of AP5 in male C57BL/6J mice given a single intravenous (i.v.) dose of 10 mg/kg or single per os (p.o.) dose of 40 mg/kg, respectively. […] Importantly, we determined AP5 in the brain homogenate with the highest concentration of 95.3 ng/mL at 2 h (Figures 1D,E). […]
Supplementary materials and methods
Prepations ofspecimen for pharmacokinetics analysis
24 h afterdosing. Brains were collected at0, 0.25, 0.5,2, 4,8 and 24 h after administration.Plasma extractions were performed by adding 90 μL methanol and 2 μL internalstandard letrozole (500 ng/mL) to a30 µL plasma sample. Brain samples were homogenized in 1 mL PBS per gram brain tissueby handheld homogenizer.
Then 90 μL methanol and 2 μL letrozolewere added to 30 µl brainhomogenates. The samples were vortexed for 3 min and centrifuged 15 min at25,000 g.The plasma and brainhomogenate were analyzed by UPLC-TSQ/MS (Thermo Fisher Scientific, Waltham, MA, USA). Samples were compared to a calibrationcurve prepared ina similarmanner by spiking blank controlplasma or homogenate with standards prepared inmethanol and then extractedas above. […]

ThS-positive plaque = experiment: Thioflavin S staining of amyloid plaques, APP/PS1 mice; assay type: in vivo; details: cortex and hippocampus; AP5 40 mg/kg once daily 5 months
Procedure: (§1) APP/PS1 mice of ages 6 months were randomly divided into vehicle (APP/PS1, n = 10) and treatment groups (AP5, n = 10), which were intragastrically administered with AP5 (40 mg/kg) once daily for consecutive 5 months. AP5 was dissolved in distilled water containing 1% sodium carboxymethyl cellulose.
The hemisphere slices were stained with 0.5% fluorescent amyloid dye Thioflavin S (ThS, T1892, Sigma Aldrich) in the dark for 10 min followed by three washes with 50% ethyl alcohol and a final wash in PBS. Image analysis of the number and size of cortical and hippocampal ThS positive plaques was carried out on Image J FIJI software with “analyze particles” function.

[2] = test system: Aβ plaque-associated microglia and astrocytes; experiment: Plaque-associated microglia and astrocytes (MOAB-2 with Iba1 or GFAP co-staining); assay type: in vivo, APP/PS1 mice
Procedure: as §1
(§2) The fixed hemibrains were paraffin-embedded and sectioned in the coronal plane. The slices were deparaffinized with xylene and rehydrated by a series of gradient alcohols. Antigen retrieval through microwave boiling was performed with 10 mM sodium citrate solution at pH 6.0. The slices were cooled down to room temperature and then rinsed in PBS solution. […]
(§3) (1:100, BAF2655, R&D, Minneapolis, MN, USA). […] For the quantification of Aβ plaque-associated microglia and astrocyte, Iba1- and GFAP-immunopositive cells around plaques were counted. On each slide, ten plaques were randomly determined and the microglia (nuclei) in the immediate vicinity (two times the plaque diameter) of each plaque were counted. For colocalization of PSD95 and synaptophysin, images were analyzed with the puncta analyzer plugin with a minimum pixel specification of 4 in Image Jand thresholding was consistent for every image. […]
(§4) anti-synaptophysin (1:1000, 67864-1-lg, Proteintech) overnight at 4°C. […] Densitometric analysis was performed using Quantity One software (Bio-Rad, Berkeley, CA, USA). […]

C3 within astrocytes = experiment: C3 and GFAP co-immunostaining (A1 astrocyte marker); assay type: in vivo; details: AP5-treated vs APP/PS1 mice
Procedure: as §1, §2, §3, §4

[3] = male, C57BL/6J, brain homogenate, po, brain, p.o. 40 mg/kg
[4] = male, C57BL/6J, iv, plasma, i.v. 10 mg/kg
[5] = male, C57BL/6J, plasma, iv, 10 mg/kg, i.v. 10 mg/kg
[6] = male, C57BL/6J, plasma, po, 40 mg/kg, p.o. 40 mg/kg
[7] = male, C57BL/6J, po, plasma, p.o. 40 mg/kg

SMILES: CCN(C)C(=O)Oc1cccc(/C=C2\Cc3cc(OC)c(OC)cc3C2=O)c1 [AP5, (E)-3-((5,6-dimethoxy-1-oxo-1,3-dihydro-2H-inden-2-ylidene)-methyl)phenylethyl(methyl)carbamate]
- B/P (brain-to-plasma distribution ratio, brain penetration) ([1]; AUCINF brain/AUCINF plasma × 100, p.o. 40 mg/kg, 40 mg/kg): 10.23%
- Cl ([1]; brain, p.o. 40 mg/kg): 896.2 mL/min/kg
- Vss ([1]; brain, p.o. 40 mg/kg): 412.6 L/kg
- AUC(0-inf) [1, 3]: 744 ng·h/mL
- AUC(0-t) [1, 3]: 706 ng·h/mL
- half-life [1, 3]: 5.32 h
- AUC(0-inf) [1, 4]: 2700 ng·h/mL
- AUC(0-t) [1, 4]: 2600 ng·h/mL
- clearance [1, 4]: 125 mL/min/kg
- half-life [1, 4]: 3.34 h
- Vd ([1]; male, C57BL/6J, iv, plasma, i.v. 10 mg/kg, read-out: Vss): 36.3 L/kg
- Tmax ([1]; male, C57BL/6J, brain homogenate, po, 40 mg/kg, brain, p.o. 40 mg/kg): 1.5 h
- Cmax ([1]; male, C57BL/6J, brain homogenate, po, 40 mg/kg, p.o. 40 mg/kg): 95.4 ng/mL
- Kp ([1]; male, C57BL/6J, brain/plasma, po, 40 mg/kg, AUCINF brain/AUCINF plasma × 100, p.o. 40 mg/kg, read-out: B/P (brain-to-plasma distribution ratio, brain penetration)): > 0.1
- Cmax [1, 5]: 5440 ng/mL
- Tmax [1, 5]: 0.083 h
- Cmax [1, 6]: 2090 ng/mL
- Tmax [1, 6]: 2 h
- bioavailability ([1]; male, C57BL/6J, plasma, oral, AUCINF p.o./AUCINF i.v./4 × 100, p.o. 40 mg/kg, i.v. 10 mg/kg, read-out: F (oral bioavailability)): 67.2%
- AUC(0-inf) [1, 7]: 7260 ng·h/mL
- AUC(0-t) [1, 7]: 6990 ng·h/mL
- half-life [1, 7]: 4.72 h
- Cl ([1]; plasma, p.o. 40 mg/kg): 45.93 mL/min/kg
- Vss ([1]; plasma, p.o. 40 mg/kg): 18.79 L/kg
- load of ThS-positive plaque (ThS-positive plaque): pronounced reduction
- number of ThS-positive plaque (ThS-positive plaque): pronounced reduction
- number of astrocytes around Aβ plaque ([2]; MOAB-2 and GFAP co-staining): no statistical difference
- plaque-associated microglia ([2]; MOAB-2 and Iba1 co-staining): increased clustering of microglia surrounding a plaque
- C3-positive area within the astrocytes (C3 within astrocytes): markedly reduced

— article PMC9289467, “A Novel Multifunctional 5,6-Dimethoxy-Indanone-Chalcone-Carbamate Hybrids Alleviates Cognitive Decline in Alzheimer’s Disease by Dual Inhibition of Acetylcholinesterase and Inflammation” (Frontiers in Aging Neuroscience, 2022)
